Source: US20100240767A1, “Melanogenesis inhibitiuon by 3,5-dimethoxy-4'-hydroxystilbenes and cosmeceutical compositions thereof” (priority 2009, published 2010)
In brackets after ≈: the same amount, converted by molar mass.

Experiments:
[1] = system: Swiss 3T3 mouse fibroblast cells; experiment: UV protection in Swiss 3T3 mouse fibroblast cells (SRB viability); format: cell-based; conditions: UV A (0.5 J/cm2) and UV B (0.05 J/cm2), 72 hours incubation, SRB staining
Description: 3,5-dimethoxy-4′-hydroxystilbene was studied for UV protection in Swiss 3T3 mouse fibroblast cells. Swiss 3T3 fibroblast cell monolayers were exposed to UV A (0.5 J/cm2) and UV B (0.05 J/cm2) in the presence and absence of sample treatment at varying concentrations. After UV exposure, the cells were incubated in CO2 incubator for 72 hours and the cell viability was determined by SRB (Sulphorhodomine B) dye staining. The UV protection is determined as the enhanced percentage of viable sample treated cells as compared to the untreated cells after UV exposure.

[2] = target: mushroom tyrosinase; experiment: mushroom tyrosinase inhibitory activity; format: biochemical; conditions: 400 U/ml mushroom tyrosinase, 3.53 mM L-tyrosine substrate, absorbance 492 nm at 10th minute
Description: The mushroom tyrosinase inhibitory activity of 3,5-dimethoxy-4′-hydroxystilbene was studied in a micro plate by incubating varying concentrations of the sample with 400 U/ml of mushroom tyrosinase and then by the addition of 3.53 mM of L-tyrosine substrate. The absorbance at the 10th minute of the reaction was read in a Fluostar Optima micro plate reader at 492 nm.

[3] = system: B16F1 mouse melanoma cell line; experiment: melanogenesis inhibition in MSH-induced B16F1 mouse melanoma cell line; format: cell-based
Description: 3,5-dimethoxy-4′-hydroxystilbene was studied for melanogenesis inhibition in B16F1 mouse melanoma cell line. B16F1 cells were induced with 0.5 nM MSH (Melanocyte stimulating hormone) and then treated with varying concentrations of the sample. Sample treatment was given thrice after every 72 hrs. On the 9th day of treatment, the melanin from the cells was extracted with 1N NaOH and the absorbance was read at 405 nm in a Fluostar Optima micro plate reader.

inhibition of mushroom tyrosinase IC50 [2]: 7 µg/mL
IC50 ([3]; Mus musculus, B16-F1, B16F1 cells induced with 0.5 nM MSH, treated thrice every 72 hrs, melanin read at 405 nm on 9th day): 0.5 µg/mL (≈ 1.95 µM)
Structure (SMILES): COc1cc(/C=C/c2ccc(O)cc2)cc(OC)c1 [3,5-dimethoxy-4′-hydroxystilbene]
UV protection (enhanced percentage of viable treated cells as compared to the untreated cells after UV exposure) [1]: 32%
melanogenesis inhibition potential relative to Glabridin ([3]; times higher potential than Glabridin, B16F1 cells): about 6 times
